Measured values from US10780074B2, “Compounds and uses thereof” (Sunovion Pharmaceuticals Inc., priority 2017, dated 2020).
Counter-ions that a name gives are not always drawn. Like-named read-outs stand apart in the source and are kept apart here.

Tested on: behaviors of compound-treated mice
Assay: Neuropharmacological Assay (SmartCube)
Type: in vivo
Details: for minimal effective dose: Mus musculus, ip, 0.25 h, dose having 50% or more total activity in SmartCube, read-out: MED (minimal effective dose)
From the text: Neuropharmacological Assay (SmartCube™)
Neurosci. 2011 Sep. 9; 5:103 (doi: 10.3389/fnins.2011.00103) (“Roberds”). As reported in Roberds, because psychiatric diseases generally result from disorders of cell-cell communication or circuitry, intact systems are useful in detecting improvement in disease-relevant endpoints. These endpoints are typically behavioral in nature, often requiring human observation and interpretation. To facilitate testing of multiple compounds for behavioral effects relevant to psychiatric disease, PsychoGenics, Inc. (Tarrytown, N.Y., “PGI”) developed SmartCube™, an automated system in which behaviors of compound-treated mice are captured by digital video and analyzed with computer algorithms. (D. Brunner et al., Drug Discov. Today 2002, 7:S107-S112). PGI Analytical Systems uses data from SmartCube™ to compare the behavioral signature of a test compound to a database of behavioral signatures obtained using a large set of diverse reference compounds. (The composition of the database as well as validation of the method is further described in Roberds). In this way, the neuropharmacological effects of a test compound can be predicted by similarity to major classes of compounds, such as antipsychotics, anxiolytics and antidepressants.
The SmartCube™ system produces an activity signature indicating the probability that the activity of the test compound at the administered dose matches a given class of neuropharmacological agents. (See, e.g., Roberds, FIGS. 2 and 3). The test compound is simultaneously compared against multiple classes of agents; thus, a separate probability is generated for each behavioral effect measured (e.g., anxiolytic activity, analgesic activity, etc.). In the table below, these probabilities are reported for each behavioral effect measured as follows:
Provided compounds were dissolved in a mixture of Pharmasolve™ (N-methyl-2-pyrrolidone), polyethylene glycol and propylene glycol, and were injected i.p. 15 min. before the behavioral test. For each compound, injections were administered at 3 different doses. For each behavioral effect measured, results for the most efficacious dose(s) are presented. In the table below, DP: anti-depressant; AX: anxiolytic; SD: sedative hypnotic; PS: anti-psychotic; MS: mood stabilizer; AD: ADHD; CE: cognitive enhancer; AG: analgesic; UN: uncharacterized CNS activity.
The potency of many of the compounds in the table was also determined in the SmartCube™ system. Test compounds were routinely examined at dose levels of 0.3, 1, 3 10 and 30 mg per kg (mpk), although the dose range was increased or decreased if necessary to obtain a full dose response curve. A compound's minimal effective dose (MED) is a measure of the compounds potency. The MED was defined as the dose (in mpk) having 50% or more total activity in SmartCube.

[1] = i.p. 15 min before behavioral test, most efficacious dose(s) of 3 doses
[2] = SmartCube, i.p. 15 min before test, most efficacious dose(s)

| SMILES | minimal effective dose (i.p.) [mg/kg] | AD: ADHD (probability that activity matches class) [1] | AG: analgesic (probability that activity matches class) [1] | AX: anxiolytic (probability that activity matches class) [1] | CE: cognitive enhancer (probability that activity matches class) [1] | DP: anti-depressant (probability that activity matches class) [1] | MS: mood stabilizer (probability that activity matches class) [1] | PS: anti-psychotic (probability that activity matches class) [1] | SD: sedative hypnotic (probability that activity matches class) [1] | UN: uncharacterized CNS activity (probability that activity matches class) [1] | minimal effective dose [mg/kg] | AD: ADHD (probability that activity matches class) [2] | AG: analgesic (probability that activity matches class) [2] | AX: anxiolytic (probability that activity matches class) [2] | CE: cognitive enhancer (probability that activity matches class) [2] | DP: anti-depressant (probability that activity matches class) [2] | MS: mood stabilizer (probability that activity matches class) [2] | PS: anti-psychotic (probability that activity matches class) [2] | SD: sedative hypnotic (probability that activity matches class) [2] | UN: uncharacterized CNS activity (probability that activity matches class) [2] |
| --- | --- | --- | --- | --- | --- | --- | --- | --- | --- | --- | --- | --- | --- | --- | --- | --- | --- | --- | --- | --- |
| CNC[C@H]1OCCc2c(-c3cncs3)cccc21 (single isomer, unassigned) [Compound 69, hydrochloride salt] | ≤ 3 | + (LOQ ≤ + <5%) | + (LOQ ≤ + <5%) | ++ (5% ≤ ++ <25%) | + (LOQ ≤ + <5%) | ++++ (50% ≤ ++++) | + (LOQ ≤ + <5%) | + (LOQ ≤ + <5%) | ++ (5% ≤ ++ <25%) | + (LOQ ≤ + <5%) | – | – | – | – | – | – | – | – | – | – |
| CNC[C@@H]1OCCc2c(-c3ccncc3)cccc21 [Compound 17, (R)—N-Methyl(5-(pyridin-4-yl)isochroman-1-yl)methanamine dihydrochloride salt] | ≤ 3 | ++ (5% ≤ ++ <25%) | + (LOQ ≤ + <5%) | + (LOQ ≤ + <5%) | + (LOQ ≤ + <5%) | ++++ (50% ≤ ++++) | + (LOQ ≤ + <5%) | + (LOQ ≤ + <5%) | ++ (5% ≤ ++ <25%) | ++ (5% ≤ ++ <25%) | – | – | – | – | – | – | – | – | – | – |
| NCC1OCCc2c(-c3cncs3)cccc21 (stereo not shown) [Compound 59, (5-(Thiazol-5-yl)isochroman-1-yl)methanamine hydrochloride salt] | ≤ 3 | ++ (5% ≤ ++ <25%) | ++ (5% ≤ ++ <25%) | ++ (5% ≤ ++ <25%) | + (LOQ ≤ + <5%) | ++++ (50% ≤ ++++) | + (LOQ ≤ + <5%) | + (LOQ ≤ + <5%) | +++ (25% ≤ +++ <50%) | ++ (5% ≤ ++ <25%) | – | – | – | – | – | – | – | – | – | – |
| CNC[C@H]1OCCc2cccc(-c3cccnc3)c21 [Compound 2, (S)-N-Methyl-1-(8-(pyridin-3-yl)isochroman-1-yl)methanamine bis-hydrochloride] | > 30 | + (LOQ ≤ + <5%) | + (LOQ ≤ + <5%) | + (LOQ ≤ + <5%) | + (LOQ ≤ + <5%) | + (LOQ ≤ + <5%) | + (LOQ ≤ + <5%) | + (LOQ ≤ + <5%) | + (LOQ ≤ + <5%) | + (LOQ ≤ + <5%) | – | – | – | – | – | – | – | – | – | – |
| NC[C@H]1OCCc2c(-c3cocn3)cccc21 [Compound 101, (S)-(5-(oxazol-4-yl)isochroman-1-yl)methanamine HCl salt] | 3 to 10 | ++ (5% ≤ ++ <25%) | + (LOQ ≤ + <5%) | ++ (5% ≤ ++ <25%) | + (LOQ ≤ + <5%) | ++ (5% ≤ ++ <25%) | + (LOQ ≤ + <5%) | + (LOQ ≤ + <5%) | + (LOQ ≤ + <5%) | ++ (5% ≤ ++ <25%) | – | – | – | – | – | – | – | – | – | – |
| NC[C@@H]1OCCc2c(-c3ccnnc3)cccc21 (single isomer, unassigned) [Compound 78, hydrochloride salt] | 3 to 10 | + (LOQ ≤ + <5%) | + (LOQ ≤ + <5%) | ++ (5% ≤ ++ <25%) | + (LOQ ≤ + <5%) | + (LOQ ≤ + <5%) | + (LOQ ≤ + <5%) | + (LOQ ≤ + <5%) | + (LOQ ≤ + <5%) | + (LOQ ≤ + <5%) | – | – | – | – | – | – | – | – | – | – |
| CNC[C@H]1OCCc2c1cccc2-n1cccn1 [Compound 187, (S)-1-(5-(1H-pyrazol-1-yl)isochroman-1-yl)-N-methylmethanamine] | – | – | – | – | – | – | – | – | – | – | 3 to 10 | ++ (5% ≤ ++ <25%) | + (LOQ ≤ + <5%) | + (LOQ ≤ + <5%) | + (LOQ ≤ + <5%) | ++++ (50% ≤ ++++) | + (LOQ ≤ + <5%) | + (LOQ ≤ + <5%) | + (LOQ ≤ + <5%) | + (LOQ ≤ + <5%) |
| CNC[C@@H]1OCCc2c(-c3c[nH]cn3)cccc21 (single isomer, unassigned) [Compound 114, hydrochloride salt] | 10 to 30 | + (LOQ ≤ + <5%) | + (LOQ ≤ + <5%) | ++ (5% ≤ ++ <25%) | + (LOQ ≤ + <5%) | + (LOQ ≤ + <5%) | + (LOQ ≤ + <5%) | + (LOQ ≤ + <5%) | + (LOQ ≤ + <5%) | + (LOQ ≤ + <5%) | – | – | – | – | – | – | – | – | – | – |
| NC[C@H]1OCCc2c(-c3cccnc3)cccc21 [Compound 16, (S)-(5-(Pyridin-3-yl)isochroman-1-yl)methanamine hydrochloride] | ≤ 3 | + (LOQ ≤ + <5%) | + (LOQ ≤ + <5%) | ++ (5% ≤ ++ <25%) | ++ (5% ≤ ++ <25%) | ++++ (50% ≤ ++++) | + (LOQ ≤ + <5%) | + (LOQ ≤ + <5%) | + (LOQ ≤ + <5%) | + (LOQ ≤ + <5%) | – | – | – | – | – | – | – | – | – | – |
| NC[C@@H]1OCCc2c(-c3ccccc3)cccc21 (single isomer, unassigned) [Compound 130, hydrochloride salt] | 10 to 30 | + (LOQ ≤ + <5%) | + (LOQ ≤ + <5%) | ++ (5% ≤ ++ <25%) | + (LOQ ≤ + <5%) | ++ (5% ≤ ++ <25%) | + (LOQ ≤ + <5%) | + (LOQ ≤ + <5%) | + (LOQ ≤ + <5%) | + (LOQ ≤ + <5%) | – | – | – | – | – | – | – | – | – | – |
